Measurements: publication PMC6232145, “Intrinsic disorder in the regulatory N-terminal domain of diacylglycerol acyltransferase 1 from Brassica napus” (Scientific Reports, 2018)

Columns and labels:
[1] = target: T1, Brassica napus diacylglycerol acyltransferase 1 (BnaDGAT1, isoform BnaC.DGAT1.a) (Brassica napus, UniProt Q9M4V2); assay: ITC ([…] stoichiometry); supported by CD; assay type: binding
T1 construct: gene DGAT1-4; BnaDGAT1_1-113, cytoplasmic N-terminal domain (residues 1-113), N-terminal 10 x His-tag
T1 sequence (Q9M4V2 1-113): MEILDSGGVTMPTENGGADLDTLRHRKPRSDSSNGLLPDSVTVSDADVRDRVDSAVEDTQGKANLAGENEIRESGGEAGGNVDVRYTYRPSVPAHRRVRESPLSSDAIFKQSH

[2] = target: T1, Brassica napus diacylglycerol acyltransferase 1 (BnaDGAT1, isoform BnaC.DGAT1.a); assay: ITC ([…] stoichiometry); supported by thermal shift (about […] degree Tm increase) and CD; assay type: binding

Row | Kd [1] | Kd [2] | SMILES
1 | 60 ± 10 µM | – | CC(C)(COP(=O)(O)OP(=O)(O)OC[C@H]1O[C@@H](n2cnc3c(N)ncnc32)[C@H](O)[C@@H]1OP(=O)(O)O)[C@@H](O)C(=O)NCCC(=O)NCCS [CoA]
2 | – | 10 ± 0.01 µM | CCCCCCCC/C=C\CCCCCCCC(=O)SCCNC(=O)CCNC(=O)[C@H](O)C(C)(C)COP(=O)(O)OP(=O)(O)OC[C@H]1O[C@@H](n2cnc3c(N)ncnc32)[C@H](O)[C@@H]1OP(=O)(O)O [oleoyl-CoA]
